Patent publication US12157746B2, “Tetrahydro-1H-pyrazino[2,1-a]isoindolylquinoline compounds for the treatment of autoimmune disease” (F. HOFFMANN-LA ROCHE AG, priority 2018, dated 2024)

Target: T1, human TLR8 (Homo sapiens, UniProt Q9NR97)
T1 sequence (Q9NR97 27-1041): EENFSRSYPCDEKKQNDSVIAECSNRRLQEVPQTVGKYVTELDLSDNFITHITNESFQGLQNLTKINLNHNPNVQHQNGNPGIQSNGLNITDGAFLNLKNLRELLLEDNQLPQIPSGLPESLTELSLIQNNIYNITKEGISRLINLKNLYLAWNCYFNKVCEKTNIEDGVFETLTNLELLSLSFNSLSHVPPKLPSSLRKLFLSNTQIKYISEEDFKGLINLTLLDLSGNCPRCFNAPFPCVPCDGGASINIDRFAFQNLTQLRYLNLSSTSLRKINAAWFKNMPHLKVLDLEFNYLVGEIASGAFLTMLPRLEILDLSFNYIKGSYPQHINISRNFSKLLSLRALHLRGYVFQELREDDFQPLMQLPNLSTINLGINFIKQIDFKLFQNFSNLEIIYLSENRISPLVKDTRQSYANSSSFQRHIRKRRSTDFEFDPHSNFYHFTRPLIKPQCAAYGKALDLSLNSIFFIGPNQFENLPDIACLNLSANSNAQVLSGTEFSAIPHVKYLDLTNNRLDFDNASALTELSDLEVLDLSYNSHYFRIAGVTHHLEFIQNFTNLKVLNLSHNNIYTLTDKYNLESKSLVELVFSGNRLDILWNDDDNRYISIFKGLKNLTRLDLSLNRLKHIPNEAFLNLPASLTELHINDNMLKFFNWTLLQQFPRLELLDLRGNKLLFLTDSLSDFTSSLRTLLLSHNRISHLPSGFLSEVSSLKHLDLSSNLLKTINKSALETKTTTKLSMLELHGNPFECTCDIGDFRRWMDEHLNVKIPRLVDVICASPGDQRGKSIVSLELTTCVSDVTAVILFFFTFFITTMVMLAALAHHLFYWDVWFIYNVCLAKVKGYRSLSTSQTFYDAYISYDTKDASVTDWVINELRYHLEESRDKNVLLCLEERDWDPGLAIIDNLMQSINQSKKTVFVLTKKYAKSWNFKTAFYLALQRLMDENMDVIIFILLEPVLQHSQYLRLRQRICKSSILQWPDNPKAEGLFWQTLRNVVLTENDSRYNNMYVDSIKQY
Assay: HEK293-Blue-hTLR-8 cells assay
Type: cell-based
Conditions: HEK293-Blue-hTLR8 cells, R848 stimulation, 20 hrs, SEAP reporter; read-out: HEK/hTLR8 IC50
Summary of the method: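 Antagonism read out in HEK293-Blue-hTLR8 cells carrying an NF-κB/AP-1-driven SEAP reporter, stimulated with R848 (10 μL of 60 uM stock added) alongside serially diluted compound (1% DMSO), 20 h at 37° C. Supernatant SEAP measured with QUANTI-Blue after 2 h at 37° C, absorbance at 620-655 nm.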

SMILES | IC50 [nM]
C[C@@H]1CN(c2ccc(C(F)(F)F)c3nccnc23)C[C@@H]2c3ccc(N[C@H]4CNC[C@H]4F)cc3CN12 [Example 77, (4R,10bS)—N-[(3S,4R)-4-fluoropyrrolidin-3-yl]-4-methyl-2-[8-(trifluoromethyl)quinoxalin-5-yl]-3,4,6,10b-tetrahydro-1H-pyrazino[2,1-a]isoindol-8-amine] | < 3.2
C[C@@H]1CN(c2ccc(C#N)c3ncsc23)C[C@@H]2c3ccc(N[C@H]4CNC[C@H]4F)cc3CN12 [Example 78, 7-[(4R,10bS)-8-[[(3S,4R)-4-fluoropyrrolidin-3-yl]amino]-4-methyl-3,4,6,10b-tetrahydro-1H-pyrazino[2,1-a]isoindol-2-yl]-1,3-benzothiazole-4-carbonitrile] | 0.4
C[C@@H]1CN(c2ccc(Cl)c3ncccc23)C[C@@H]2c3ccc(N[C@H]4CNC[C@H]4F)cc3CN12 [Example 79, (4R,10b)-2-(8-chloro-5-quinolyl)-N-[(3S,4R)-4-fluoropyrrolidin-3-yl]-4-methyl-3,4,6,10b-tetrahydro-1H-pyrazino[2,1-a]isoindol-8-amine] | 2.8
C[C@@H]1CN(c2ccc(C#N)c3ncccc23)C[C@@H]2c3cccc(NCCN4CC[C@H](O)C4)c3CN12 [Example 80, 5-[(4R,10bS)-7-[2-[(3S)-3-hydroxypyrrolidin-1-yl]ethylamino]-4-methyl-3,4,6,10b-tetrahydro-1H-pyrazino[2,1-a]isoindol-2-yl]quinoline-8-carbonitrile] | < 3.2
C[C@@H]1CN(c2ccc(C#N)c3ncccc23)C[C@@H]2c3cccc(N[C@H]4CNC[C@H]4F)c3CN12 [Example 81, 5-[(4R,10bS)-7-[[(3S,4R)-4-fluoropyrrolidin-3-yl]amino]-4-methyl-3,4,6,10b-tetrahydro-1H-pyrazino[2,1-a]isoindol-2-yl]quinoline-8-carbonitrile] | < 3.2
C[C@@H]1CN(c2ccc(C#N)c3ncccc23)C[C@@H]2c3ccc(C(=O)N4CCC(C)(N)CC4)cc3CN12 [Example 88, 5-[(4R,10bS)-8-(4-amino-4-methyl-piperidine-1-carbonyl)-4-methyl-3,4,6,10b-tetrahydro-1H-pyrazino[2,1-a]isoindol-2-yl]quinoline-8-carbonitrile] | 0.7
[2H]c1ccc2c(N3C[C@@H](C)N4Cc5cc(N6CC7(CNCCO7)C6)ccc5[C@H]4C3)ccc(C#N)c2n1 [Example 90, 5-[(4R,10bS)-4-methyl-8-(5-oxa-2,8-diazaspiro[3.5]nonan-2-yl)-3,4,6,10b-tetrahydro-1H-pyrazino[2,1-a]isoindol-2-yl]-2-deuterio-quinoline-8-carbonitrile] | < 0.3

More lines, now with the values ahead:

IC50 [nM] | SMILES
1 | C[C@@H]1CN(c2ccc(C#N)c3ncccc23)C[C@@H]2c3cc(F)c(N4C[C@H](N)[C@@](C)(O)C4)cc3CN12 [Example 83, 5-[(4R,10bS)-8-[(3S,4S)-4-amino-3-hydroxy-3-methyl-pyrrolidin-1-yl]-9-fluoro-4-methyl-3,4,6,10b-tetrahydro-1H-pyrazino[2,1-a]isoindol-2-yl]quinoline-8-carbonitrile]
1.3 | C[C@@H]1CN(c2ccc(C#N)c3ncccc23)C[C@@H]2c3cc(F)c(N4CC5(CNC5)C4)cc3CN12 [Example 84, 5-[(4R,10bS)-8-(2,6-diazaspiro[3.3]heptan-2-yl)-9-fluoro-4-methyl-3,4,6,10b-tetrahydro-1H-pyrazino[2,1-a]isoindol-2-yl]quinoline-8-carbonitrile]
9.2 | C[C@@H]1CN(c2ccc(C#N)c3ncccc23)C[C@@H]2c3cc(F)c(N4CC5CNCC(C4)O5)cc3CN12 [Example 85, 5-[(4R,10bS)-9-fluoro-4-methyl-8-(9-oxa-3,7-diazabicyclo[3.3.1]nonan-3-yl)-3,4,6,10b-tetrahydro-1H-pyrazino[2,1-a]isoindol-2-yl]quinoline-8-carbonitrile]
